US10472352B2, “Rac inhibitors” (Geneyus LLC, priority 2017, dated 2019)
Values belong to the compound of their own block, whether it stands above or below them.

Experiments:
[1] = tested on: PSA in LNCaP prostate cancer cells; test: Inhibition of Increased Protein Levels of PSA (immunoblot); type: cell-based; conditions: 10 nM DHT, 18 hours, 5 uM enzalutamide, 10, 15 or 20 uM 0032661
Description: After 18 hours protein was harvested. SDS-PAGE followed by immunoblotting of samples was performed using standard techniques. Protein lysates were immunoblotted for the Androgen Receptor (AR), PSA, and Actin.

[2] = tested on: MCF-7 human breast cancer cell line; test: Cell Viability Assay (MCF7), PrestoBlue; type: cell-based; conditions: MCF7, 72 h, MCF-7 cells, three days after drug treatment
Description: In order to determine a compound's effect on cell viability, PrestoBlue assays were performed as previously described by Kuhn et al. (2013) with modifications. MCF-7 human breast cancer and IGR-1 human melanoma cell lines were seeded into 96-well plates 24 hours prior to addition of drug. Cells were treated with 0 to 200 μM (11 concentrations) of compound solubilized in DMSO, adjusting the final concentration of DMSO to 1% in the well. Three days after drug treatment, cell viability was measured by adding PrestoBlue (Life Technologies Ltd.; cat. No. A13262) reagent directly to wells containing media/drug to reach a final concentration of 10%. PrestoBlue is a modified molecule of the common Alamar Blue probe used to determine viability based on the ability of a cell to metabolize a nonfluorescent compound (resazurin) to a florescent molecule (resorufin). Following a 1 hour incubation period, total well fluorescence was measured using the microplate reader M1000 pro (Tecan) with excitation 560-5 nm and emission 590-5 nm. […] The percentage of living cells was then computed by comparison with control wells. Kuhn, Jonas et al., Assay and Drug Development Technologies, March 2013, Label-Free Cytotoxicity Screening Assay by Digital Holographic Microscopy.

[3] = biological target: His-Rac1 / GST-PBD (PAK Binding Domain) (Homo sapiens, UniProt P63000); test: Rac Activation AlphaScreen Assay (Rac1 AS); type: biochemical; conditions: 500 nM GTPγS, 37° C., 1 hour; 'positive' = signal generated was higher than the positive control
Description: AlphaScreen® assays were performed in 96-well microplates in a final reaction volume of 60 μl. Recombinant His-Rac1, recombinant GST-PBD (PAK Binding Domain), donor and acceptor beads (PerkinElmer), and inhibitors were incubated in exchange buffer (20 mM Tris pH 7.5, 50 mM NaCl, 1 mM MgCl2, 1 mM EDTA, 500 nM GTPγS (guanosine 5′-[γ-thio]triphosphate)) at 37° C. Readings were performed on a Tecan M1000 pro microplate reader after 1 hour.

Rac1 protein = biological target: T1, Rac1 protein (Homo sapiens, UniProt P63000); test: Fluorescence Polarization Assay (Rac1 FP); type: binding; conditions: 125 nM his-tagged Rac1, 12.5 nM Bodipy-TR GTPγS, 30 minutes at 37° C.
T1 construct: purchased Cytoskeleton Inc. RC01
Description: Direct binding of Rac1 compound inhibitors to Rac1 protein was performed using fluorescence polarization (FP). Briefly, Rac1 inhibitors were initially dissolved in DMSO and then serial drug dilutions in exchange buffer (20 mM Tris pH 7.5, 50 mM NaCl, 1 mM MgCl, 1 mM EDTA) were prepared in a flat black 96-well half-area plate (Greiner). Recombinant his-tagged Rac1 protein (Cytoskeleton Inc. Cat. # RC01) was added to the inhibitors at a final concentration of 125 nM along with 12.5 nM Bodipy-TR GTPγS (Life Technologies Inc. Cat. # G35780) in exchange buffer and incubated for 30 minutes at 37° C. in exchange buffer. After 30 minutes of incubation. FP was measured on the M1000 Pro (Tecan) fluorescent plate reader with 590 nm±5 nm excitation and 625 nm±5 nm emission spectra settings.

[4] = tested on: estrogen receptor response gene (SDF) in MCF7 breast cancer cells; test: Inhibition of Estrogen Receptor Target Gene Transcription (SDF qPCR); type: cell-based; conditions: MCF7, 10 nM estradiol, 4 hours; 1 uM fulvestrant; 5 or 10 uM 0032661
Description: After 4 hours, RNA was harvested and converted into cDNA. qPCR analysis for SDF was performed on all samples and normalized to expression of GAPDH. The data, shown in FIG. 7, is expressed as fold change relative to SDF expression of the cFBS sample.

[5] = tested on: BT474 breast cancer cells; test: BT474 Four (4) Day Cell Viability Assay; type: cell-based; conditions: BT474, 4 days, 32661 0 μM
Description: BT474 breast cancer cells that are Estrogen Receptor Positive and HER2+ were grown in 5% cFBS. 5,000 cells were seeded into each well of a 96-well plate and treated with escalating doses of lapatinib, fulvestrant, and 32661.

[6] = tested on: estrogen receptor response genes Cyclin D1 and pS2 in MCF7 breast cancer cells; test: Inhibition of Estrogen Receptor Target Gene Protein Expression (immunoblot); type: cell-based; conditions: MCF7, 10 nM E2, 18 hours; 1 uM fulvestrant; 5 or 10 uM 0032661
Description: After 18 hours, protein was harvested. SDS-PAGE followed by immunoblotting of samples was performed using standard techniques. Protein lysates were immunoblotted for Estrogen Receptor (ER), Cyclin D1, pS2, and Actin.

SMILES: CNC(=O)c1ccc(N2C(=S)N(c3ccc(C#N)c(C(F)(F)F)c3)C(=O)C2(C)C)cc1F [enzalutamide, reference compound]
increase in protein levels of PSA [1]: inhibit the increase in protein levels of PSA

IC50 [2]: 4.86 µM | Rac1 AS IC50(uM) [3]: positive | IC50 (Rac1 protein): 1.24 µM
SMILES: FC(F)(F)c1ccc2c(SCCCCCOc3ccc(CN4CCOCC4)nc3)ccnc2c1 [Compound 0031778, 4-[(5-{[6-(morpholin-4-ylmethyl)pyridin-3-yl]oxy}pentyl)sulfanyl]-7-(trifluoromethyl)quinoline]

SMILES: C[C@]12CC[C@@H]3c4ccc(O)cc4C[C@@H](CCCCCCCCC[S+]([O-])CCCC(F)(F)C(F)(F)F)[C@H]3[C@@H]1CC[C@@H]2O (some centres unmarked) [Fulvestrant, fulvestrant, reference compound]
estrogen receptor target gene transcription (SDF) [4]: inhibit the estrogen receptor target gene transcription | cellular viability ([5]; fulvestrant 6.9 nM, lapatinib 0.0 nM): 94% | cellular viability ([5]; fulvestrant 6.9 nM, lapatinib 6.9 nM): 96% | cellular viability ([5]; fulvestrant 6.9 nM, lapatinib 20.6 nM): 96% | cellular viability ([5]; fulvestrant 6.9 nM, lapatinib 61.7 nM): 87% | cellular viability ([5]; fulvestrant 6.9 nM, lapatinib 185.2 nM): 85% | cellular viability ([5]; fulvestrant 6.9 nM, lapatinib 555.6 nM): 79% | cellular viability ([5]; fulvestrant 6.9 nM, lapatinib 1666.7 nM): 69% | cellular viability ([5]; fulvestrant 6.9 nM, lapatinib 3333.0 nM): 51% | cellular viability ([5]; fulvestrant 20.6 nM, lapatinib 0.0 nM): 94% | cellular viability ([5]; fulvestrant 20.6 nM, lapatinib 6.9 nM): 88% | cellular viability ([5]; fulvestrant 20.6 nM, lapatinib 20.6 nM): 88% | cellular viability ([5]; fulvestrant 20.6 nM, lapatinib 61.7 nM): 83% | cellular viability ([5]; fulvestrant 20.6 nM, lapatinib 185.2 nM): 82% | cellular viability ([5]; fulvestrant 20.6 nM, lapatinib 555.6 nM): 78% | cellular viability ([5]; fulvestrant 20.6 nM, lapatinib 1666.7 nM): 63% | cellular viability ([5]; fulvestrant 20.6 nM, lapatinib 3333.0 nM): 47% | cellular viability ([5]; fulvestrant 61.7 nM, lapatinib 0.0 nM): 91% | cellular viability ([5]; fulvestrant 61.7 nM, lapatinib 6.9 nM): 89% | cellular viability ([5]; fulvestrant 61.7 nM, lapatinib 20.6 nM): 89% | cellular viability ([5]; fulvestrant 61.7 nM, lapatinib 61.7 nM): 90% | cellular viability ([5]; fulvestrant 61.7 nM, lapatinib 185.2 nM): 88% | cellular viability ([5]; fulvestrant 61.7 nM, lapatinib 555.6 nM): 77% | cellular viability ([5]; fulvestrant 61.7 nM, lapatinib 1666.7 nM): 66% | cellular viability ([5]; fulvestrant 61.7 nM, lapatinib 3333.0 nM): 34% | cellular viability ([5]; fulvestrant 185.2 nM, lapatinib 0.0 nM): 94% | cellular viability ([5]; fulvestrant 185.2 nM, lapatinib 6.9 nM): 91% | cellular viability ([5]; fulvestrant 185.2 nM, lapatinib 20.6 nM): 91% | cellular viability ([5]; fulvestrant 185.2 nM, lapatinib 61.7 nM): 91% | cellular viability ([5]; fulvestrant 185.2 nM, lapatinib 185.2 nM): 88% | cellular viability ([5]; fulvestrant 185.2 nM, lapatinib 555.6 nM): 74% | cellular viability ([5]; fulvestrant 185.2 nM, lapatinib 1666.7 nM): 63% | cellular viability ([5]; fulvestrant 185.2 nM, lapatinib 3333.0 nM): 36% | cellular viability ([5]; fulvestrant 555.6 nM, lapatinib 0.0 nM): 87% | cellular viability ([5]; fulvestrant 555.6 nM, lapatinib 6.9 nM): 90% | cellular viability ([5]; fulvestrant 555.6 nM, lapatinib 20.6 nM): 90% | cellular viability ([5]; fulvestrant 555.6 nM, lapatinib 61.7 nM): 88% | cellular viability ([5]; fulvestrant 555.6 nM, lapatinib 185.2 nM): 82% | cellular viability ([5]; fulvestrant 555.6 nM, lapatinib 555.6 nM): 74% | cellular viability ([5]; fulvestrant 555.6 nM, lapatinib 1666.7 nM): 58% | cellular viability ([5]; fulvestrant 555.6 nM, lapatinib 3333.0 nM): 26% | cellular viability ([5]; fulvestrant 1666.7 nM, lapatinib 0.0 nM): 80% | cellular viability ([5]; fulvestrant 1666.7 nM, lapatinib 6.9 nM): 79% | cellular viability ([5]; fulvestrant 1666.7 nM, lapatinib 20.6 nM): 76% | cellular viability ([5]; fulvestrant 1666.7 nM, lapatinib 61.7 nM): 75% | cellular viability ([5]; fulvestrant 1666.7 nM, lapatinib 185.2 nM): 68% | cellular viability ([5]; fulvestrant 1666.7 nM, lapatinib 555.6 nM): 65% | cellular viability ([5]; fulvestrant 1666.7 nM, lapatinib 1666.7 nM): 47% | cellular viability ([5]; fulvestrant 1666.7 nM, lapatinib 3333.0 nM): 15% | cellular viability ([5]; fulvestrant 3333.0 nM, lapatinib 0.0 nM): 60% | cellular viability ([5]; fulvestrant 3333.0 nM, lapatinib 6.9 nM): 53% | cellular viability ([5]; fulvestrant 3333.0 nM, lapatinib 20.6 nM): 53% | cellular viability ([5]; fulvestrant 3333.0 nM, lapatinib 61.7 nM): 26% | cellular viability ([5]; fulvestrant 3333.0 nM, lapatinib 185.2 nM): 24% | cellular viability ([5]; fulvestrant 3333.0 nM, lapatinib 555.6 nM): 32% | cellular viability ([5]; fulvestrant 3333.0 nM, lapatinib 1666.7 nM): 20% | cellular viability ([5]; fulvestrant 3333.0 nM, lapatinib 3333.0 nM): 4% | protein levels of estrogen receptor target genes (Cyclin D1, pS2) [6]: inhibit the increase in protein levels of estrogen receptor target genes
